Measured values as given in US11260070B2, “Methods of treating feline coronavirus infections” (GILEAD SCIENCES, INC., priority 2017, dated 2022).
Where two headings read alike, the source gives them in different places.

What was measured:
[1] = CellTox Green Cytotoxicity Assay in uninfected CRFK cells; type: cell-based; settings: cat (feline), 72 hour incubation
Procedure: Compound 1 was screened for cytotoxicity in uninfected CRFK cells using a commercially available CellTox Green Cytotoxicity Assay (Promega). The assayed was performed in a 96 well place formate using serial dilution of Compound 1 in sextuplicate. Compound concentration associated with 50% cytotoxicity (CC50) following 72 hour incubation was calculated by regression analysis.

feline coronavirus = test: In vitro antiviral assay: virus-induced cytopathic effect in CRFK cells (crystal violet staining); type: cell-based
Procedure: Compound 1 was screened for activity against feline Coronaviruses in an in vitro assay. Serial dilutions of Compound 1 were mixed with 2.5×10^4 copies of feline coronavirus and added in sextuplicate to 96 well plates with pre-seeded CRFK cells. The plates were incubated for 72 hours followed by a staining of the cell culture monolayers with crystal violet. The level of virus-induced cytopathic effect was quantified visually and using a plate reader. Positive control wells comprised the virus without Compound 1. Negative control wells lacked both virus and Compound 1. The EC50 was calculated by regression analysis.

What does the source list for `N#C[C@@]1(c2ccc3c(N)ncnn23)O[C@H](CO)[C@@H](O)[C@H]1O` [Compound 1, (2R,3R,4S,5R)-2-(4-aminopyrrolo[2,1-f][1,2,4]triazin-7-yl)-3,4-dihydroxy-5-(hydroxymethyl)tetrahydrofuran-2-carbonitrile]?
CC50 at 72 h [1]: > 100000 nM; EC50 (feline coronavirus; Alphacoronavirus 1, CRFK, read-out: EC50 (FIG. 1 legend)): 750 nM; EC50 (feline coronavirus; Alphacoronavirus 1, feline coronavirus in CRFK cells, 72 hours incubation, regression analysis (Table 1), read-out: EC50): 770 nM; inhibition of feline coronavirus (feline coronavirus; CRFK cells, at 3, 2 and 1 μM, FIG. 1): ~100%
